Assays:
SETVI [1] = assay: Pre-emergence herbicidal action against SETVI; assay type: in vivo, Setaria viridis; conditions: Setaria viridis, 504 h
Summary of the method: (§1)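 Sandy loam pots, seeds covered with soil, then surface-treated with WP or EC formulations at 600–800 l/ha water plus 0.2% wetting agent. Greenhouse, 3 weeks. Percent damage vs untreated controls.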

AMARE [2] = assay: Pre-emergence herbicidal action against AMARE; assay type: in vivo, Amaranthus retroflexus; conditions: Amaranthus retroflexus, 504 h, scored visually after 3 weeks vs untreated controls, 100% = plants have died, 0% = like control plants
Summary of the method: as §1

ECHCG [3] = assay: Post-emergence herbicidal action against ECHCG; assay type: in vivo, Echinochloa crus-galli; conditions: Echinochloa crus-galli, 504 h, dosage 20 g/ha
Summary of the method: (§2)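 Herbicidal action is a visual percentage rating (0% = as untreated control, 100% = plants dead) made roughly 3 weeks after treatment. Plants were grown in sandy loam in the greenhouse and treated at the one-leaf stage, 2 to 3 weeks post-sowing. Treatment was a foliar spray of wettable-powder or emulsion-concentrate formulations at 600 to 800 l/ha water plus 0.2% wetting agent.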

AVEFA [4] = assay: Post-emergence herbicidal action against AVEFA; assay type: in vivo, Avena fatua; conditions: Avena fatua, 504 h, 20 g/ha, visual assessment about 3 weeks after treatment, 100% = plants have died, 0% = like control plants
Summary of the method: as §2

ECHCG [5] = assay: Pre-emergence herbicidal action against ECHCG; assay type: in vivo, Echinochloa crus-galli; conditions: Echinochloa crus-galli, 504 h, 80 g/ha
Summary of the method: as §1

ALOMY [6] = assay: Pre-emergence herbicidal action against ALOMY; assay type: in vivo, Alopecurus myosuroides; conditions: Alopecurus myosuroides, 504 h, pre-emergence
Summary of the method: as §1

VIOTR [7] = assay: Pre-emergence herbicidal action against VIOTR; assay type: in vivo, Viola tricolor; conditions: Viola tricolor, 504 h
Summary of the method: as §1

ALOMY [8] = assay: Post-emergence herbicidal action against ALOMY; assay type: in vivo, Alopecurus myosuroides; conditions: Alopecurus myosuroides, 504 h, visual assessment about 3 weeks after treatment vs untreated controls
Summary of the method: as §2

MATIN = assay: Pre-emergence herbicidal action against MATIN; assay type: in vivo, Matricaria inodora; conditions: Tripleurospermum inodorum, 504 h, dosage 80 g/ha
Summary of the method: as §1

VERPE = assay: Pre-emergence herbicidal action against VERPE; assay type: in vivo, Veronica persica; conditions: Veronica persica, 504 h, dosage 80 g/ha
Summary of the method: as §1

AVEFA [9] = assay: Pre-emergence herbicidal action against AVEFA; assay type: in vivo, Avena fatua; conditions: Avena fatua, 504 h; 80 g/ha, pre-emergence
Summary of the method: as §1

VIOTR [10] = assay: Post-emergence herbicidal action against VIOTR; assay type: in vivo, Viola tricolor; conditions: Viola tricolor, 504 h, 20 g/ha
Summary of the method: as §2

AMARE [11] = assay: Post-emergence herbicidal action against AMARE; assay type: in vivo, Amaranthus retroflexus; conditions: Amaranthus retroflexus, 504 h, 20 g/ha, visual assessment about 3 weeks after treatment, 100% = plants have died, 0% = like control plants
Summary of the method: as §2

SETVI [12] = assay: Post-emergence herbicidal action against SETVI; assay type: in vivo, Setaria viridis; conditions: Setaria viridis, 504 h, dosage 20 g/ha
Summary of the method: as §2

ABUTH [13] = assay: Post-emergence herbicidal action against ABUTH; assay type: in vivo, Abutilon theophrasti; conditions: Abutilon theophrasti, 504 h, dosage 20 g/ha, visual assessment about 3 weeks after treatment vs untreated controls
Summary of the method: as §2

ABUTH [14] = assay: Pre-emergence herbicidal action against ABUTH; assay type: in vivo, Abutilon theophrasti; conditions: Abutilon theophrasti, 504 h, 80 g/ha, scored visually after 3 weeks vs untreated controls (100% = plants have died, 0% = like control plants)
Summary of the method: as §1

LOLRI = assay: Post-emergence herbicidal action against LOLRI; assay type: in vivo, Lolium rigidum; conditions: Lolium rigidum, 504 h, dosage 20 g/ha
Method: Seeds of monocotyledonous and dicotyledonous weed and crop plants are laid out in sandy loam soil in wood-fiber pots, covered with soil and cultivated in a greenhouse under good growth conditions. 2 to 3 weeks after sowing, the test plants are treated at the one-leaf stage. The compounds of the invention, formulated in the form of wettable powders (WP) or as emulsion concentrates (EC), are then sprayed onto the green parts of the plants in the form of an aqueous suspension or emulsion at a water application rate equivalent to 600 to 800 l/ha, with addition of 0.2% wetting agent. After the test plants have been left to stand in the greenhouse under optimal growth conditions for about 3 weeks, the action of the preparations is assessed visually in comparison to untreated controls (herbicidal action in percent (%): 100% activity=the plants have died, 0% activity=like control plants). […] The tables below illustrate, in an illustrative manner, the post-emergence herbicidal action of the compounds of the invention, the herbicidal activity being stated in percent.

Cn1nnnc1NC(=O)c1ccc(Cl)c(C(=O)NC2CC2)c1Br [Example 1-351]
pest or weed control at 20 g/ha (SETVI [1]; dosage 20 g/ha): 100% | pest or weed control at 80 g/ha (SETVI [1]; dosage 80 g/ha): 100% | pest or weed control at 20 g/ha (AMARE [2]; 20 g/ha): 100% | pest or weed control at 80 g/ha (AMARE [2]; 80 g/ha): 100% | pest or weed control at 20 g/ha (ECHCG [3]): 100% | pest or weed control at 20 g/ha (AVEFA [4]): 80% | pest or weed control at 80 g/ha (ECHCG [5]): 100% | pest or weed control at 80 g/ha (ALOMY [6]; 80 g/ha, scored visually after 3 weeks vs untreated controls (100% = plants have died, 0% = like control plants)): 100% | pest or weed control at 20 g/ha (ALOMY [6]; 20 g/ha, scored visually after 3 weeks, 100% = plants have died, 0% = like control plants): 100% | pest or weed control at 20 g/ha (VIOTR [7]; dosage 20 g/ha): 100% | pest or weed control at 80 g/ha (VIOTR [7]; dosage 80 g/ha): 100% | pest or weed control at 5 g/ha (ALOMY [8]; dosage 5 g/ha): 90% | pest or weed control at 20 g/ha (ALOMY [8]; dosage 20 g/ha): 90% | pest or weed control at 80 g/ha (MATIN): 100% | pest or weed control at 80 g/ha (VERPE): 90% | pest or weed control at 80 g/ha (AVEFA [9]): 100% | pest or weed control at 20 g/ha (VIOTR [10]): 80% | pest or weed control at 20 g/ha (AMARE [11]): 100% | pest or weed control at 20 g/ha (SETVI [12]): 100% | pest or weed control at 20 g/ha (ABUTH [13]): 80% | pest or weed control at 80 g/ha (ABUTH [14]): 100% | pest or weed control at 20 g/ha (LOLRI): 80%

— patent US12655116B2, “Substituted isophthalic acid diamides” (Bayer Aktiengesellschaft, priority 2020, dated 2026)
